Results on one compound are retold here after US9944583B2, “Methods for ameliorating and preventing central nervous system inflammation” (THE REGENTS OF THE UNIVERSITY OF CALIFORNIA, priority 2007, dated 2018).

The test system of one assay is PV-interneurons. The assay can be described thus: parvalbumin and GAD67 immunoreactivity in PV-interneurons in primary neuronal cultures. The note with it: co-exposure with ketamine 24 h; muscimol 10 μM, C3, apocynin 0.5 mM.
In assay [1] the test system is synaptosomal mitochondria. The assay can be described thus: respiration of synaptosomal mitochondria (oximetry). The conditions noted are these: apocynin 0-200 μM in synaptosomes.
Assay [2] has as its system pyramidal layer of CA1 in the aged hippocampus. The assay can be described thus: in vivo superoxide production in CA1 of the aged hippocampus (DHE confocal imaging). The conditions noted are these: old mice; C3 by oral administration; apocynin. Also on record: species or system mouse. The method, then: Analysis of superoxide and/or hydrogen peroxide production by confocal imaging of in vivo dihydroethidium (DHE) oxidation. Mice will be injected intraperitoneally (i.p.) with dihydroethidium. Briefly, two serial i.p. injections of freshly prepared dihydroethidium (27 mg/kg) are given at 30 minute intervals. Eighteen hours later, mice are anesthetized with inhaled halothane, and are perfused intracardially with cold saline followed by 4% paraformaldehyde in PBS. Brains are removed and post-fixed in 2% paraformaldehyde for >24 h. Following fixation, brains are cut into 50 μm coronal sections and co-labeled with the appropriate primary and secondary antibodies for fluorescence visualization. […] First, an image is taken in the fluorescence channel of the ICC-fluorophor and then the channel is switched to image fluorescence from DHE oxidation. […] Using the image pairs for each field and MetaMorph software, an analyst blind to the group circles the outline of each ICC-labeled cell and then switches to the DHE oxidation image. The average fluorescence intensity for each cell of interest is logged, and values averaged to determine the mean fluorescence/cell.

Assay [3] relates to primary neuronal cultures. The assay can be described thus: IL-6 exposure of primary neuronal cultures: oxidized DHE, Nox2, parvalbumin and GAD67. It is filed as cell-based, mouse. The method, then:
IL-6 increases superoxide in a Nox dependent manner, and reduces GAD67 and parvalbumin in primary cultures, as summarized by the data graphically presented in FIG. 18. […] As before, dihydroethidium (DHE) was applied for the last hour (DHE detects superoxide and hydrogen peroxide). After fixation, ICC for PV and GAD67 was carried out as described in methods and quantitative confocal microscopy was utilized for fluorescence analysis.
DHE (1 μg/ml) was added during the last hour of treatment. Images show the increase in Nox2 immunoreactivity and oxidized DHE upon treatment with IL-6. Bar-graphs show the results of quantification of oxidized DHE and Nox2 fluorescence expressed as % of control. […] Data are means±SEM. Baseline intensities: DHE=21±4.7; Nox2=18.7±2.6.
Fluorescence confocal images of representative fields depicting the expression of parvalbumin (PV) and GAD67 in PV-interneurons. Bar-graph represents the quantification of fluorescence expressed as % of control. […] Data are means±SEM. Baseline intensities: PV=135±32; GAD67=114±26.
IL-6 potentiates ketamine effects on PV-interneurons. […] After fixation, ICC for GAD67 and parvalbumin was carried out as described by Kinney (2006) J. Neurosci. […] N=3 cultures per condition.

For assay [4], the system named is PV-interneurons in mouse prefrontal cortex. The assay can be described thus: two-day ketamine treatment of mice: oxidized DHE, parvalbumin and GAD67 in prefrontal cortex. It counts as in vivo. The method, then: Animals and treatments. […] Male C57BL6 mice were obtained from Jackson Labs, Bar Harbor, Me., at 8-12 weeks and housed in our facility until 15 weeks when they were used for experiments. Ketamine (30 mg/kg) was applied intraperitoneally (IP) on two consecutive days at around 4 pm. DHE was applied 30 min after the last ketamine injection as described (19, 20). Briefly, two serial i.p. injections of freshly prepared dihydroethidium (27 mg/kg) are given at 30 minute intervals. Eighteen hours later, mice are anesthetized with inhaled halothane, and perfused intracardially with cold saline followed by 4% paraformaldehyde in PBS. The Nox inhibitor, apocynin (5 mg/kg/day) was given in the drinking water for a total of seven days, with an assumed intake of […] H2O/mouse/day, and ketamine was applied on the last two days. […] All animal studies were approved by the Animal Care Program at the University of California, San Diego, and are in accordance the PHS Guide for the Care and Use of Laboratory Animals, USDA Regulations, and the AVMA Panel on Euthanasia.
Immunohistochemistry: Brains were frontally sliced in a vibratome into 50 μm coronal sections encompassing the prefrontal cortex region (from Bregma 2.0 to 1.3). Sequential slices were processed for floating-section double immunohistochemistry for the detection of parvalbumin and GAD67. Antigen retrieval was performed by incubation of the slices in 1% sodium borohydride for 15 min as described (see reference 34, below), followed by washing in PBS and incubation in 10% normal goat serum in PBS for 16 h at 4° C. Primary antibodies (Calbindin: 1:5000: Calretinin: 1:2000; Parvalbumin: 1:3000, all rabbit polyclonals from Swant, Bellinzona, Switzerland. GAD67: 1:1000, from Chemicon-Millipore, Temecula, Calif.) were diluted in 2% normal goat serum in PBS and applied to the slices for 18 h at 4° C., after which slices were washed in PBS and incubated in a 1:1000 dilution of ALEXAFLUOR™ (Molecular Probes, Invitrogen, Carlsbad, Calif.) conjugated goat anti-rabbit (568) or goat anti-mouse (488) antibodies for 1 hr at room temperature (rt). Slices were washed in PBS and mounted sequentially in glass slides using […]™ (Vector Laboratories, Burlingame, Calif.), covered with a coverslip and allowed to dry for at least 24 h before confocal imaging.
Six slices were analyzed per animal.
Analysis of superoxide and/or hydrogen peroxide production by confocal imaging of in vivo dihydroethidium (DHE) oxidation. Mice will be injected intraperitoneally (i.p.) with dihydroethidium.

Where [5] appears, read: apocynin 5 mg/kg/day 1 week in drinking water, C3 1.0 mg/kg/day one month by mini-pumps.

“Also recorded” adds a separate entry of the source.

With `COc1cc(C(C)=O)ccc1O` [apocynin, 4-hydroxy-3-methoxyacetophenone], the “effect on ketamine-mediated loss of parvalbumin and GAD67 immunoreactivity in PV-interneurons” value with PV-interneurons is listed as “prevented; also recorded: attenuated”. In addition, the mitochondrial respiration result in assay [1] is “did not affect”. For the same compound, the “effect on elevated levels of superoxide in the pyramidal layer of CA1 in the aged hippocampus” value in assay [2] is recorded as “prevented”. For the same compound, the “effect on IL-6 effects (DHE oxidation, GAD67 and parvalbumin)” value in assay [3] (apocynin 0.5 mM with IL-6 10 ng/ml, 24 h) is “prevented”. Also, in assay [3] (apocynin added along with IL-6), the “effect on IL-6-induced superoxide production” value was “eliminated” and the “effect on Nox2 induction by IL-6” value is given as “not affected”. Besides, in assay [4] (setting [5]), the “effect on ketamine-induced increase in oxidized DHE in vivo” value is given as “prevented” and the “effect on ketamine-mediated loss of parvalbumin immunoreactivity in PV-interneurons in vivo” value is “completely prevented”. Moreover, in assay [4] (apocynin in the drinking water), the “effect on ketamine-mediated decrease in parvalbumin and GAD67 immunoreactivity in PFC” value was “prevented”.
